Molecular target: Prothrombin (Homo sapiens) (UniProt P00734)
Test: Binding affinity for human alpha-thrombin

K ass	SMILES
1.02e+07 l M-1	O=[N+]([O-])c1cc(Cc2c(-c3ccc(OCCN4CCCC4)cc3)sc3ccccc23)ccc1OCCN1CCCC1
1.1e+06 l M-1	Oc1cc(Cc2c(-c3ccc(OCCN4CCCC4)cc3)sc3ccccc23)ccc1OCCN1CCCC1
1.02e+06 l M-1	CCCc1cc(Cc2c(-c3ccc(OCCN4CCCC4)cc3)sc3ccccc23)ccc1OCCN1CCCC1
410000 l M-1	CS(=O)(=O)Nc1cc(Cc2c(-c3ccc(OCCN4CCCC4)cc3)sc3ccccc23)ccc1OCCN1CCCC1
2.4e+06 l M-1	FC(F)(F)c1cc(Cc2c(-c3ccc(OCCN4CCCC4)cc3)sc3ccccc23)ccc1OCCN1CCCC1
420000 l M-1	CCCCc1cc(Cc2c(-c3ccc(OCCN4CCCC4)cc3)sc3ccccc23)ccc1OCCN1CCCC1
7.27e+06 l M-1	CCc1cc(Cc2c(-c3ccc(OCCN4CCCC4)cc3)sc3ccccc23)ccc1OCCN1CCCC1
290000 l M-1	CCNc1cc(Cc2c(-c3ccc(OCCN4CCCC4)cc3)sc3ccccc23)ccc1OCCN1CCCC1
1.1e+06 l M-1	Nc1cc(Cc2c(-c3ccc(OCCN4CCCC4)cc3)sc3ccccc23)ccc1OCCN1CCCC1
310000 l M-1	CC(=O)Nc1cc(Cc2c(-c3ccc(OCCN4CCCC4)cc3)sc3ccccc23)ccc1OCCN1CCCC1
4.87e+06 l M-1	Fc1cc(Cc2c(-c3ccc(OCCN4CCCC4)cc3)sc3ccccc23)ccc1OCCN1CCCC1
2.75e+07 l M-1	Brc1cc(Cc2c(-c3ccc(OCCN4CCCC4)cc3)sc3ccccc23)ccc1OCCN1CCCC1
270000 l M-1	Brc1cc(OCCN2CCCC2)ccc1Cc1c(-c2ccc(OCCN3CCCC3)cc2)sc2ccccc12
2.42e+07 l M-1	Cc1cc(Cc2c(-c3ccc(OCCN4CCCC4)cc3)sc3ccccc23)ccc1OCCN1CCCC1
1.22e+07 l M-1	COc1cc(Cc2c(-c3ccc(OCCN4CCCC4)cc3)sc3ccccc23)ccc1OCCN1CCCC1
220000 l M-1	O=S(=O)(Nc1cc(Cc2c(-c3ccc(OCCN4CCCC4)cc3)sc3ccccc23)ccc1OCCN1CCCC1)c1ccccc1

Reference: ChEMBL document CHEMBL1130966, “Dibasic benzo[b]thiophene derivatives as a novel class of active site directed thrombin inhibitors. 2. Exploring interactions at the proximal (S2) binding site” (Bioorg Med Chem Lett, 1998)
